Test results taken from US8501908B2, “Immunogenic peptides” (priority 2008, dated 2013).

Columns and labels:
Assay type in all cases: cell-based, human
KM-H2 (HL) cell line = experiment: 51Cr release cytolytic assay of peptide-specific CTL cell lines; details: HLA-A*0201-negative PASD1-positive KM-H2; 4 h 51Cr release
Experimental: (§1) A conventional ^51Cr-labelling release assay was used to investigate the ability of CTL and TH cell lines generated from DLBCL patients to lyse PASD1-positive tumour target cells. The target cell lines, consisting of the OCI-Ly3, SUDHL-6, KM-H2 and Thiel, were radiolabelled with 100 μCi ^51Cr for 90 minutes. […] The incubation period of the TH with the target cells was increased to 18 hours. Maximum ^51Cr release was determined following the addition of 10% Triton-X to the radiolabelled target cells and spontaneous release was assessed by adding RPMI1640/FCS to the target cells. The supernatant was harvested and counted in a gamma-counter (Beckmann, Heidelberg, Germany).

[1] = system: PBMCs from DLBCL patients; experiment: γ-IFN release ELISPOT, PBMCs of DLBCL patients after short-term culture with peptides; set-up: γ-IFN response to peptides: unit not given here; details: for order of immunogenicity for eliciting CTLs: order PASD1(1), PASD1(2), PASD1(5), PASD1(3), PASD1(4); for γ-IFN response to peptides: triplicate ELISPOT
[2] = system: SUDHL-6 (DLBCL) cell line; experiment: 51Cr release cytolytic assay of peptide-specific CTL/TH cell lines; details: PASD1-negative SUDHL-6; for lysis by CTL lines raised against the peptide: 4 h 51Cr release
Experimental: as §1

[3] = system: Thiel (myeloma) cell line; experiment: as above; details: for lysis by CTL lines raised against the peptide: HLA-A*0201-positive PASD1-positive Thiel, 4 h 51Cr release, four patients
Experimental: as §1

[4] = system: OCI-Ly3 (DLBCL) cell line; experiment: as above; details: for lysis by CTL lines raised against the peptide: PASD1-positive HLA-A*0201-negative OCI-Ly3, 4 h 51Cr release
Experimental: as §1

[5] = system: PBMCs from healthy donors; experiment: γ-IFN release ELISPOT, PBMCs of healthy donors after short-term culture with peptides; details: triplicate ELISPOT, ± SD
[6] = PBMCs from a DLBCL patient stimulated in culture with PASD1(6) or PASD1(7) peptides, +/− SD

Sequence: YLVGNVCIL (listed as Homo sapiens) [PASD1(2)]
- lysis by CTL lines raised against the peptide (KM-H2 (HL) cell line): not
- order of immunogenicity for eliciting CTLs ([1]; from γ-IFN release assay): more immunogenic
- lysis by CTL lines raised against the peptide [2]: not
- lysis by CTL lines raised against the peptide [3]: dose dependent lysis
- lysis by CTL lines raised against the peptide [4]: not

Sequence: QLLDGFMITL (listed as Homo sapiens) [PASD1(1)]
- lysis by CTL lines raised against the peptide (KM-H2 (HL) cell line): not
- γ-IFN response to peptides [1, 6]: 30 +/− 4
- order of immunogenicity for eliciting CTLs ([1]; from γ-IFN release assay): most immunogenic
- lysis by CTL lines raised against the peptide [2]: not
- lysis by CTL lines raised against the peptide [3]: dose dependent lysis
- cytolytic effect of peptide-stimulated cells ([3]; effector:target ratio of 5:1, all four patients): significant
- lysis by CTL lines raised against the peptide [4]: not

Sequence: ELSDSLGPV (listed as Homo sapiens) [PASD1(5)]
- lysis by CTL lines raised against the peptide (KM-H2 (HL) cell line): not
- order of immunogenicity for eliciting CTLs ([1]; from γ-IFN release assay): more immunogenic
- lysis by CTL lines raised against the peptide [2]: not
- lysis by CTL lines raised against the peptide [3]: dose dependent lysis
- lysis by CTL lines raised against the peptide [4]: not

Sequence: DGFMITLSTDGVIICVAENI (listed as Homo sapiens) [PASD1(7)]
- TH γ-IFN response to peptides at time of diagnosis and after one year ([1]; DLBCL patients (FIG. 5), short term culture, p<0.05): significant
- γ-IFN response to peptides [1, 6]: 26 +/− 2
- γ-IFN response to peptides ([1]; Patient 1, De novo DLBCL, DRB1-0102, group Significant response, ± SD): 28 ± 4
- γ-IFN response to peptides ([1]; Patient 2, De novo DLBCL, DRB1-0101, group Significant response, ± SD): 46 ± 8
- γ-IFN response to peptides ([1]; Patient 3, De novo DLBCL, DRB1-0301, group Significant response, ± SD): 26 ± 4
- γ-IFN response to peptides ([1]; Patient 4, De novo DLBCL, DRB1-0102, group Significant response, ± SD): 44 ± 4
- γ-IFN response to peptides ([1]; Patient 8, De novo DLBCL, DRB1-1501, group Significant response, ± SD): 18 ± 2
- γ-IFN response to peptides ([1]; Patient 9, De novo DLBCL, DRB1-0301, group Significant response, ± SD): 18 ± 2
- γ-IFN response to peptides ([1]; Patient 10, De novo DLBCL, DRB1-0101, group No significant response, ± SD): 26 ± 2
- γ-IFN response to peptides ([1]; Patient 12, De novo DLBCL, DRB1-0401, group Significant response, ± SD): 36 ± 4
- γ-IFN response to peptides ([1]; Patient 15, De novo DLBCL, DRB1-1301, group No significant response, ± SD): 32 ± 2
- γ-IFN response to peptides ([1]; Patient 17, De novo DLBCL, DRB1-0301, group No significant response, ± SD): 18 ± 4
- γ-IFN response to peptides ([1]; Patient 18, De novo DLBCL, DRB1-0401, group No significant response, ± SD): 26 ± 2
- γ-IFN response to peptides ([1]; Patient 19, De novo DLBCL, DRB1-1104, group No significant response, ± SD): 26 ± 2
- γ-IFN response to peptides ([1]; Patient 20, De novo DLBCL, DRB1-1303, group No significant response, ± SD): 14 ± 2
- γ-IFN response to peptides ([1]; Patient 21, De novo DLBCL, DRB1-0301, group No significant response, ± SD): 10 ± 2
- γ-IFN response to peptides ([1]; Patient 24, De novo DLBCL, DRB1-1301, group Significant response, ± SD): 38 ± 4
- γ-IFN response to peptides ([1]; Patient 28, Trans DLBCL, DRB1-0701, group No significant response, ± SD): 22 ± 6
- γ-IFN response to peptides ([1]; Patient 37, Trans DLBCL, DRB1-0103, group Significant response, ± SD): 32 ± 6
- γ-IFN response to peptides ([1]; Patient 48, T-cell rich DLBCL, DRB1-0301, group Significant response, ± SD): 56 ± 6
- γ-IFN response to peptides ([1]; Patient 61, De novo DLBCL, DRB1-0401, group No significant response, ± SD): 10 ± 4
- immunogenicity among patients studied ([1]; TH γ-IFN response, DLBCL patients): immunogenic in the majority of patients
- γ-IFN response to the PASD1(1) CTL peptide elicited by culture with the peptide ([1]; cells cultured 8-10 days with PASD1(6) or PASD1(7), Table 4): comparable
- order of immunogenicity for eliciting TH cell responses ([1]; from γ-IFN release assay, order PASD1(6), PASD1(7), PASD1(10), PASD1(9), PASD1(8)): most immunogenic
- lysis by TH cell lines specific for the peptide ([2]; 18 h 51Cr release): no significant lysis
- lysis by TH cell lines specific for the peptide ([3]; PASD1-positive Thiel, 18 h 51Cr release): Significant dose dependent lysis
- lysis by TH cell lines specific for the peptide ([4]; PASD1-positive OCI-Ly3, 18 h 51Cr release): Significant dose dependent lysis
- γ-IFN response to peptides ([5]; Healthy donor HD 1, DRB1-0102): 20 ± 2
- γ-IFN response to peptides ([5]; Healthy donor HD 2, DRB1-0401): 8 ± 2
- γ-IFN response to peptides ([5]; Healthy donor HD 3, DRB1-0401): 10 ± 2
- γ-IFN response to peptides ([5]; Healthy donor HD 4, DRB1-0301): 20 ± 2
- γ-IFN response to peptides ([5]; Healthy donor HD 5, DRB1-0301): 22 ± 2
